Results as given in patent US8188149B2, “Use of R(+)-N-propargy1-1-aminoindan to treat or prevent hearing loss” (Teva Pharmaceutical Industries, Ltd., priority 2007, dated 2012).
Where two headings read alike, the source gives them in different places.

Experiments:
[1] = test system: neomycin-induced hearing loss; conditions: mice
Procedure: Left ears were left for vehicle control (NaCl injection). […] Click stimulations to the ear including various frequencies were used to evoke the auditory response in the brainstem that was measured by multiple electrodes placed on the head of the animal.

[2] = test system: neomycin-induced hearing loss; conditions: guinea pigs
Procedure: Guinea pigs weighing 250-300 g were used in all experiments. All interventions (including ABR measurements and intratympanic treatments) are performed under general anesthesia using i.p. injection of a cocktail of Ketamine and Xylazine.
A loudspeaker is placed in each ear and the ABR responses were detected by four surface electrodes. These electrodes are placed two in the mastoid region and one in vertex as positive and fourth electrode was placed on forehead as the ground electrode. Calibrated acoustic signals are obtained to evoke brainstem response. The visual detection threshold is determined by decrement sound pressure in 5 dB steps. The evoked responses are then filtered and averaged with 500 sweeps using a signal processor. All ABR tests are performed bilaterally and baseline Peak Equivalent Sound Pressure Levels (PESPLs) are obtained in terms of decibel (dB). All animals undergo baseline hearing test (ABR) before any kind of treatment in order to rule out previous hearing loss. Control ABR threshold measurements are compared to pretreatment values. Auditory threshold shift is subjected to statistical analysis, statistical significance is determined.
A fine needle is used for myringotomy and drugs are delivered through the same needle. The whole middle ear is filled until the fluid can be seen in the external auditory canal. […] Concentration is calculated using this volume. […]

[3] = test system: dopamine release from the guinea pig cochlea preparation
Procedure: The bulla tympani of a male guinea pig (weighing 150-350 g) was opened. The bony capsule of the cochlea was removed under stereomicroscopic guidance and the stria vascularis was stripped and the cochlea was fractured at the basis of the modiolus. The preparation contained the ganglion spirale, the afferent auditory fibers, the axons and axon terminals of the efferent bundles and both the inner and outer hair cells. All experiments were carried out in a perilimph-like solution, which contained […], 3.5 mM KCl, 1 mM CaCl2, 1 mM MgCl2, 2.75 mM HEPES and 2.25 mM Tris-OH at the temperature of 37° C. and pH 7.4. The osmolality was set by D-glucose and continuously saturated by 100% O2.
The cochleae were incubated with 0.2 μM [3H]dopamine (Amersham, UK, spec. act.: 31.0 Ci/mmol, 6 μCi in 1 ml) for 35 min. Each cochlea was then placed in a microvolume plexi chamber and superfused at 3 ml/min with perilymph-like solution. After 1 hour pre-perfusion the outflow was collected into 3 min-fractions. The released activity was determined by assaying […] of each sample with liquid scintillation spectrometry (Packard Tri-Carb 1900TR). After collecting samples for 57 minutes (19 fractions) each cochlea was transferred from the microchambers to 500 μl of 10% trichloroacetic acid for one day and 100 μl was assayed for tissue radioactivity. […] Electrical field stimulation was applied for one fraction period (3 min, 360 pulses) at 60 V, 2 Hz and 0.5 ms duration at the 3rd and 13th fractions. The pulses were delivered by a Grass S88 stimulator (West Warwick, USA) through platinum electrodes at the top and bottom of the tissue chamber.
To best describe the release of dopamine during one collecting period, the fractional release (FR) of the tritium-outflow was determined as the percentage of total radioactivity present in the tissue at the time of sample collection. The fractional release evoked by field stimulations (S1 and S2) was calculated by the area-under-the-curve, i.e., by subtracting the mean of the basal release from the total fractional release during the electrical stimulation (Halmos G, Gáborján A, Lendvai B, Répássy G, Z Szabó L, Vizi E S, (2000) Veratridine-evoked release of dopamine from guinea pig isolated cochlea. Hear Res 144: 89-96, Halmos G, Lendvai B, Gáborján A, Baranyi M, Z Szabó L, Csokonai Vitéz L, (2002) Simultaneous measurement of glutamate and dopamine release from isolated guinea pig cochlea. Neurochem Int 40: 243-248). The effects of drugs on the field stimulation-evoked [^3H]dopamine release were expressed by the calculated ratio of FRS2 over FRS1, in the presence and in the absence of the drug, respectively. The effect of drugs on the resting outflow of tritium was determined as the ratio of the sum of the two highest consecutive resting FR values in the presence of the drug and before the drug reached the cochleae (FRR2/FRR1). Data are expressed as the means±S.E.M. ANOVA was used for statistical analysis. Tukey post-hoc test was applied to determine the significance of pair wise comparisons.

C#CCN[C@@H]1CCc2ccccc21 [Rasagiline, R(+)-N-propargyl-1-aminoindan]
hearing threshold compared to threshold prior to neomycine treatment ([1]; 0.5 mg Rasagiline intratympanically together with neomycine): remained unchanged
protection against ototoxic effect of neomycine ([1]; intraperitoneally 50 mg/kg daily, day of neomycine treatment and next three days): could not prevent
hearing threshold compared to threshold prior to neomycine treatment ([2]; Rasagiline intratympanically together with neomycine): remains unchanged
protection against ototoxic effect of neomycine ([2]; intraperitoneally on day of neomycine treatment and next three days): can not prevent
field stimulation-evoked dopamine release (FRS2/FRS1) ([3]; 100 μM Rasagiline): increase was significant
evoked dopamine release, all timing groups vs control ([3]; 100 μM, 3-21 min perfusion): significant enhancement
resting release of dopamine (FRR2/FRR1) ([3]; 100 μM, longest duration, 21 minutes prior to stimulation): failed to induce significant differences
field stimulation-evoked dopamine release (FRS2/FRS1) ([3]; 300 μM Rasagiline): increase was significant
effect on dopamine release, concentration dependence ([3]; 1-300 μM, FIG. 2): concentration dependent
cochlear DA release ([3]; higher doses (of 1, 10, 100, 300 μM), added 15 min prior to second field stimulation): elevate
cochlear dopamine release ([3]; low concentration (of 1, 10, 100, 300 μM), added 15 min prior to second field stimulation): did not change
